System: laser induced CNV model in mice
Assay: SLO imaging after i.v. application in laser induced CNV mouse model
Format: in vivo, C57/BI6 mice
Protocol: For animal experiments, the laser induced CNV model in mice was used as described by Tobe et al. (1998). In brief, C57/BI6 mice (8-12 weeks old) were anesthetized, pupils were dilated and 4-6 burns of 100 μm diameter were produced with a laser (100 mW, 100 μs). In 80-90% of the laser burns, CNV develops within about 14 days.
As read-out, Scanning Laser Opthalmoscopy (SLO), flat mount and histology are performed. 100 μl of the respective formulation was applied intravenously, immediately followed by SLO over a time course of about 120 min. Three different EndoTAG formulations are selected:
EndoTAG-A: DOTAP/DOPC/OG-DHPE=60/35/5 mol %, 10 mM total liposomal components in 10% trehalose (produced as described in Example 1). EndoTAG-B: DOTAP/DOPC/OG-DOPE=[…] mol %, 10 mM total liposomal components in 10% trehalose EndoTAG-C: DOTAP/DOPC/OG-DOPE/PEG-DOPE=60/30/5/5 mol %, 10 mM total liposomal components in 10% trehalose
As control, neutral liposomes (DOPC/OG-DOPE=95/5 mol %, 10 mM total lipid, in trehalose) is applied as well as an aqueous solution of Oregon Green (0.5 mM). Additional animals are used to carry out flat mounts and histology by sacrificing animals at the respective peak intensity as observed in SLO.

For Oregon Green [free dye], the “Accumulation at lesion site / neovascular sites” value (SLO after i.v. application) was “did not show an accumulation” and the “Staining of the vasculature / neovasculature” value (after 60 min, equivalent concentrations) was “no increased staining of the vasculature”.

Reference: patent publication US20100034749A1, “Use of a Cationic Collodal Preparation for the Diagnosis and Treatment of Ocular Diseases” (MediGene AG, priority 2006, published 2010)
